In the assay the target is Autotaxin (Homo sapiens, UniProt Q13822). Briefly: Quanta Red Assay: Measuring ATX activity using an enzyme coupled Quanta Red assay (Thermo Scientific Pierce Protein Research Products, Product #15159) was determined as follows. 8 μL human recombinant ATX (final concentration 0.8 μg/mL) in 1× Assay buffer containing 50 mM Tris-HCl (pH 8.0), 5 mM CaCl2 was added to an opaque black flat-bottom 384-well plate (Corning, #3575) containing 2 μL test compound in 40% DMSO (4% final DMSO concentration). 10 μL of Quanta Red, Horseradish peroxidase (HRP), Choline Oxidase (CO), Rac-1-Palmitoyl-glycero-3-phosphocholine solution (final concentration 1:250 for Quanta Red, 0.5units/ml HRP, 0.5units/ml CO, 15 μM Rac-1-Palmitoyl-glycero-3-phosphocholine) in 1× assay buffer (as described previously) was added to each well to start the reaction and the plate was incubated at room temperature for 2 hours. The reaction was stopped after 2 hours with a 20 μL addition of Quanta Red Stop solution (1:20 dilution in distilled water). The above-described mixture with DMSO alone was used as a positive control whereas that with DMSO alone without ATX was taken as a negative control. For each test compound, ten concentrations were measured covering a range of 6.1 nM to 120 μM to determine IC50 values. The top concentration was decreased to 1.2 μM when a test compound's IC50 value was evaluated in low nanomolar range. Fluorescence was determined in a BMG Labtech Pherastar plus plate reader (λ emission=540 nm, λ excitation=590 nm). Data were analysed using Excel fit software.

SMILES strings stand for the structures. pIC50: −log10 of the molar value.

Turning to `CCCN(CC)Cc1ccc(N2CC(C(=O)Nc3nnc(CCc4ccc(Cl)cc4)s3)CC2=O)cc1` (stereo not drawn), the negative-log IC50 (pIC50) (usually −log10 of the IC50, conventionally taken in molar units) was 8.40.

Consider `O=C1CN(Cc2ccc(N3C[C@H](NC(=O)c4nnc(CCc5ccc(Cl)cc5)s4)CC3=O)cc2)CCN1`, for which the pIC50 was 8.10.

`CN1CCN(Cc2ccc(N3C[C@H](NC(=O)c4nnc(CCc5ccc(Cl)cc5)s4)CC3=O)cc2)CC1`: the pIC50 is 6.91.

Consider `O=C(Nc1cc(CCc2ccc(Cl)cc2)[nH]n1)C1CC(=O)N(c2ccc(CN3CCOCC3)cc2)C1` (stereo not drawn), for which the pIC50 is 8.30.

`O=C(Nc1nnc(CCC2CCOCC2)s1)C1CC(=O)N(c2ccc(CN3CCOCC3)cc2)C1` (stereo not drawn): the pIC50 was 6.45.

For `CCC(C)CCc1nnc(NC(=O)C2CC(=O)N(c3ccc(CN4CCOCC4)cc3)C2)s1` (stereo not drawn), the pIC50 was 7.96.

Take `O=C(Nc1nnc(CCC2CCCC2)s1)C1CC(=O)N(c2ccc(CN3CCOCC3)cc2)C1` (stereo not drawn): the pIC50 is 8.52.

Turning to `CCCN(C)Cc1ccc(N2CC(C(=O)Nc3nnc(CCc4ccc(Cl)cc4)s3)CC2=O)cc1` (stereo not drawn), the negative-log IC50 (pIC50) is 8.52.

These data come from ChEMBL document CHEMBL5725945, “Autotaxin inhibitors” (2018).
